Measurements as given in patent US10519148B2, “Acrylic acid derivative, preparation method and use in medicine thereof” (Zhejiang Hisun Pharmaceutical Co., Ltd., priority 2015, dated 2019).

System: MCF-7 carcinoma xenografts
Experiment: Tumor growth inhibition in SCID mice bearing MCF-7 carcinoma xenografts
Format: in vivo
Conditions: for TGI (%) Day 4: Day 4, MCF-7 tumor bearing SCID mice; for TGI (%) Day 7: Day 7, MCF-7 tumor bearing SCID mice; for TGI (%) Day 11: Day 11, MCF-7 tumor bearing SCID mice; for TGI (%) Day 14: Day 14, MCF-7 tumor bearing SCID mice; for TGI (%) Day 18: Day 18, MCF-7 tumor bearing SCID mice; for TGI (%) Day 21: Day 21, MCF-7 tumor bearing SCID mice; for effect on tumor growth inhibition in human breast cancer MCF-7 bearing mice (in words): doses of 30 mg/kg and 50 mg/kg, within 21 days
Method: 1. Purpose of the Experiment
This test was used to evaluate the inhibitory effect of the test compounds, which were orally administered daily for 21 days, on the growth of transplanted tumor in MCF-7 tumor-bearing SCID mice.
2. Preparation of the Test Substance
Solvent: 20% PEG400, 80% deionized water;
Preparation of the test compounds: an appropriate amount of the test compounds were weighed, dissolved in PEG400 (20%), and then 80% amount of the sterilized deionized water was added, shocked evenly. The test compounds were freshly prepared daily before administration.
Varieties and strains: SCID mice, SPF, female, 7 to 9 weeks old (16 to 22 grams), 100 mice, purchased from Beijing Huafu kang Biotechnology Co., Ltd., 100 mice with good health were used for the experiment, with the environment adaption time of 5 to 7 days.
4. MCF-7 Tumor Cell Culture
MCF-7 cells were cultured in RPMI1640 medium containing 10% fetal bovine serum, cultured in 37° C., 5% CO2 incubator. Cells in logarithmic phase were taken before inoculating, digested with 0.25% trypsin, and then the cells were washed with PBS, resuspended in medium without serum and counted. The cell concentration was adjusted to 7.5×10^7 cells/mL (1:1 Matrigel, Extracellular Matrix Proteins, 356234, BD).
5. Animal Inoculation and Grouping
Each mouse was inoculated subcutaneously in the right axilla with 0.2 mL cell suspension (1.5×10^7 cells/mouse) under aseptic conditions. Estrogen was administrated subcutaneously after inoculation. When the tumor grows to volume of about 150-250 mm^3, the mice with similar tumor volume and good tumor shape were selected (shape to be a single spherical as much as possible, no irregular shape or multiple tumors together), 10 mice per group.
6. Animal Administration and Observation
The formation of tumor in the inoculated part of each group of animals was observed. The long diameter (Y) and the short diameter (X) of the tumor nodules were measured with a vernier caliper twice a week and calculated according to the following formula: The volume of tumor nodules (V): V=(X^2Y)/2.
Evaluation index of antitumor activity: tumor growth inhibition rate TGI (%), relative tumor proliferation rate T/C (%). • Tumor growth inhibition rate TGI (%): TGI (%)=(Vc−Vt)/Vc×100. Where Vc is the tumor volume of the model control group and Vt is the tumor volume of the compound group.
Relative tumor volume (RTV): RTV=Vn/V0. Where V0 is the tumor volume just before the first time administered, and Vn is the tumor volume at the time of measurement.
Relative tumor proliferation rate: T/C (%): T/C (%)=TRTV/CRTV×100. Where, TRTV was RTV of the treatment group and CRTV was RTV of negative control group.

Row | SMILES | TGI (%) Day 4 (30 mg/kg po qd) [%] | TGI (%) Day 7 (30 mg/kg po qd) [%] | TGI (%) Day 11 (30 mg/kg po qd) [%] | TGI (%) Day 14 (30 mg/kg po qd) [%] | TGI (%) Day 18 (30 mg/kg po qd) [%] | TGI (%) Day 21 (30 mg/kg po qd) [%] | TGI (%) Day 4 (50 mg/kg po qd) [%] | TGI (%) Day 7 (50 mg/kg po qd) [%] | TGI (%) Day 11 (50 mg/kg po qd) [%] | TGI (%) Day 14 (50 mg/kg po qd) [%] | TGI (%) Day 18 (50 mg/kg po qd) [%] | TGI (%) Day 21 (50 mg/kg po qd) [%] | effect on tumor growth inhibition in human breast cancer MCF-7 bearing mice (in words)
1 | C[C@@H]1Cc2c([nH]c3cccc(F)c23)[C@@H](c2c(F)cc(/C=C/C(=O)O)cc2F)N1CC1(F)CC1 [Example 12, (E)-3-(3,5-difluoro-4-((1R,3R)-5-fluoro-2-((1-fluorocyclopropyl)methyl)-3-methyl-2,3,4,9-tetrahydro-1H-pyrido[3,4-b]indol-1-yl)phenyl)acrylic acid] | 12.1 | 25.9 | 41.5 | 53.6 | 62.0 | 73.4 | 12.4 | 25.4 | 43.8 | 59.6 | 69.8 | 79.4 | significant effect on tumor growth inhibition
2 | C[C@@H]1Cc2c([nH]c3ccccc23)[C@@H](c2c(F)cc(/C=C/C(=O)O)cc2F)N1CC1(F)CC1 [Example 1, (E)-3-(3,5-difluoro-4-((1R,3R)-2-((1-fluorocyclopropyl)methyl)-3-methyl-2,3,4,9-tetrahydro-1H-pyrido[3,4-b]indol-1-yl)phenyl)acrylic acid] | 12.3 | 24.4 | 34.5 | 52.7 | 65.7 | 76.7 | 16.9 | 26.5 | 38.8 | 54.2 | 66.9 | 78.8 | significant effect on tumor growth inhibition
